Laboratory results reported in patent US20240408064A1, “RAS INHIBITORS, COMPOSITIONS AND METHODS OF USE THEREOF” (GENETOLEAD INC., priority 2021, published 2024).

Key:
HRas^G12V [1] = molecular target: T1, HRas^G12V (Homo sapiens (Human), UniProt P01112, G12V); test: 19F T2-CPMG NMR score; format: binding
Summary of the method: (§1)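 Fragments were pooled at 240 μM each with 50 μM HRas G12V in 25 mM sodium phosphate pH 7.4, 150 mM NaCl, 5 mM MgCl2, 1 mM TCEP-d16, 10% D2O, and screened by 1H-decoupled 1D 19F NMR at 600 MHz (64 scans, 5 s relaxation delay). T2-CPMG data were collected with 1 ms echoes and eight delays from 1 to 800 ms.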

HRas^G12V [2] = molecular target: T1, HRas^G12V; test: Overall binding/activity in the various assays (NMR consensus binding)
Protocol: Since the fragment library was curated using phosphate buffer, 25 mM sodium phosphate pH 7.4, 150 mM NaCl, 5 mM MgCl2, 1 mM TCEP-d16, 10% D2O Fresh TCEP was used for experiments. Screening was performed using ^1H-decoupled 1D ^19F experiment Bruker experiment (zgfhigqn.2) with 64 scans and a relaxation delay of 5 seconds. 50 μM HRas^G12V and 240 μM of each fragment in pools (mixtures) were used.
Hit confirmation was performed using the same ^19F experiment as the screen. Ligand-observed 1D ^1H, protein-observed 1D ^1H, ^1H T2-CPMG as well as Saturation Transfer Difference (STD) experiments were also run on the same samples. Ligand-observed 1D ^1H was run using the standard Bruker sequence with excitation sculpting (zgesgp) with a relaxation delay of 10 seconds and 16 scans per spectrum. Protein-observed 1D ^1H was performed using the same sequence with a relaxation delay of 1 second and 256 scans in order to increase the signal-to-noise of the protein resonances, while keeping the experimental time relatively short. The ^1H T2-CPMG experiment employed a modified version of the Bruker 1D ^1H zgesgp experiment with the addition of a CPMG pulse train after the first 90° excitation pulse. Total duration for each spin echo was fixed at 1 ms (τ=500 μs), while the number of echoes in the pulse train was varied according to the total time (T). The number of scans for each spectrum was 4 and eight delay times were run on each sample, ranging from 1 ms to 800 ms.
STD experiments consisted of two independent spectra with offsets of 0 ppm (on resonance) and −20 ppm (off resonance). […] 160 scans were acquired for each spectrum.
The results obtained with the compounds in the various assays described above are depicted in Table 21.
Because of its power to probe the intrinsically weak interactions (Kd) between targets and low-molecular weight fragments, NMR fragment-based lead discovery (FBLD) is a very useful biophysical method in early stage drug discovery, especially for challenging target proteins; including those with shallow binding pockets. Since FBLD screens are performed using low-molecular weight compounds (fragments) with lower structural complexity, the same chemical space can be covered using a smaller number of drug-like fragments versus use of large libraries of higher-molecular weight lead-like compounds as in high throughput screening (HTS) campaigns. Therefore, FBLD has a much higher hit rate than HTS using only several hundred to several thousand compounds in comparison with approximately 1 million compounds for HTS. Also, the small size of the compounds screened in FBLD means a better chance to fully match the interactions with small or transient pockets within the target protein, where these less tractable pockets cannot be accessed with standard classical HTS methods. […] We expect this methodology to be more advantageous than classical HTS methods for expediting the time from hit to lead (H2L) and allows for rapid access to high quality leads with lower attrition rates in subsequent lead optimization (LO) campaigns toward pre-clinical candidate selection. FBLD screening by NMR involves a “consensus binding” approach where several distinct NMR experiments (DLB, STD, CPMG) are applied along with a free-state aggregation detection method (T2-CPMG) to rank the compounds for their affinity to the receptor (HRAS in this case) whilst simultaneously monitoring the solution behavior and critical quality attributes of each compound. The latter helps to eliminate artifact binders which are highly problematic. We performed a fluorine screen involving 461 compounds that were derived from a highly curated fragment library. Moreover, two-dimensional ^15N HSQC NMR was also used to validate ligand-binding sites on the target protein. In addition, we employed protein-detected biophysical measurements were employed to determine fragment binding affinities to the target protein (Kd) by HSQC NMR. […]

HRas^G12V [3] = molecular target: T1, HRas^G12V; test: 19F DLB (ligand-observed 19F NMR) score; format: binding; set-up: scale not given here
Summary of the method: as §1

T1 sequence (P01112 1-166 G12V): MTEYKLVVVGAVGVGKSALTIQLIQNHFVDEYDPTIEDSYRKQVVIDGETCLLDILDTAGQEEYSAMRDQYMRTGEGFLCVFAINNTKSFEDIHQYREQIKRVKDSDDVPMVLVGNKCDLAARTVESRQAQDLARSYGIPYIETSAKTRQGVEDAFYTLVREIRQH

Row | 19F T2-CPMG Score (HRas^G12V [1]) | Binding to HRas^G12V (in words) (HRas^G12V [2]) | 19F DLB Score (HRas^G12V [3]) | Structure (SMILES)
1 | 2.67 | low or no binding | 1.15 | CN1CCC(NC(=O)Cc2c[nH]c3cc(F)ccc23)C(C(=O)O)C1 (stereo not drawn) [Compound 10118, 4-(2-(6-fluoro-1H-indol-3-yl)acetamido)-1-methylpiperidine-3-carboxylic acid]
2 | −0.46 | low or no binding | 0.87 | CN1CCC(NC(=O)Cc2c[nH]c3cc(F)ccc23)C(C(=O)O)C1 (stereo not drawn) [Compound 10119, 4-(2-(6-fluoro-1H-indol-3-yl)acetamido)-1-methylpiperidine-3-carboxylic acid]
3 | 5.23 | low or no binding | 1.26 | CCOC(=O)[C@H]1COCCN1C(=O)Cc1c[nH]c2cc(F)ccc12 [Compound 10121]
4 | 2.37 | low or no binding | 1.5 | O=C(O)[C@@H]1CCCCN1C(=O)Cc1c[nH]c2cc(F)ccc12 [Compound 10123]
5 | 4.35 | low or no binding | 1.3 | O=C(O)CC1CCN(C(=O)Cc2c[nH]c3cc(F)ccc23)CC1 [Compound 10127]
6 | 2.85 | low or no binding | 1.63 | O=C(O)[C@H]1CCCN(C(=O)Cc2c[nH]c3cc(F)ccc23)C1 [Compound 10133, (S)-1-(2-(6-fluoro-1H-indol-3-yl)acetyl)piperidine-3-carboxylic acid]
7 | 6.73 | low or no binding | 1.55 | O=C(Cc1c[nH]c2cc(F)ccc12)N1CCOC(c2ccccc2)C1 (stereo not drawn) [Compound 10136]
8 | 5.98 | low or no binding | 1.49 | CCOC(=O)[C@@H]1COCCN1C(=O)Cc1c[nH]c2cc(F)ccc12 [Compound 10140, ethyl (S)-4-(2-(6-fluoro-1H-indol-3-yl)acetyl) morpholine-3-carboxylate]
9 | 3.15 | low or no binding | 1.21 | COC(=O)C1CN(C(C)C)CCC1NC(=O)Cc1c[nH]c2cc(F)ccc12 (stereo not drawn) [Compound 10141, methyl 4-(2-(6-fluoro-1H-indol-3-yl)acetamido)-1-isopropylpiperidine-3-carboxylate]
10 | 2.43 | low or no binding | 1.11 | COC(=O)C1CN(C)CCC1NC(=O)Cc1c[nH]c2cc(F)ccc12 (stereo not drawn) [Compound 10142, Methyl 4-(2-(6-fluoro-1H-indol-3-yl)acetamido)-1-methylpiperidine-3-carboxylate]
11 | 0.9 | low or no binding | 0.89 | CC1CN(C(=O)Cc2cc3ccc(F)cc3[nH]2)C1 [Compound 10143, 2-(6-fluoro-1H-indol-2-yl)-1-(3-methylazetidin-1-yl)ethan-1-one]
12 | 2.26 | low or no binding | 1.56 | O=C(O)[C@@H]1CCCN(C(=O)Cc2c[nH]c3cc(F)ccc23)C1 [Compound 10149]
13 | 2.07 | low or no binding | 1.24 | O=C(O)[C@@H]1COCCN1C(=O)Cc1c[nH]c2cc(F)ccc12 [Compound 10150, (S)-4-(2-(6-fluoro-1H-indol-3-yl)acetyl)morpholine-3-carboxylic acid]
14 | 3.24 | low or no binding | 1.29 | O=C(O)[C@@H]1CN(C(=O)Cc2c[nH]c3cc(F)ccc23)CCO1 [Compound 10151]
15 | 3.54 | low or no binding | 1.03 | O=C(O)[C@H]1COCCN1C(=O)Cc1c[nH]c2cc(F)ccc12 [Compound 10152]
16 | 3.22 | low or no binding | 1.39 | O=C(O)[C@H]1CN(C(=O)Cc2c[nH]c3cc(F)ccc23)CCO1 [Compound 10153]
17 | 5.5 | low or no binding | 1.65 | CC(=O)NC[C@H]1CN(C(=O)Cc2c[nH]c3cc(F)ccc23)CCO1 [Compound 10162, (S)—N-((4-(2-(6-fluoro-1H-indol-3-yl)acetyl)morpholin-2-yl)methyl) acetamide]
18 | 4.84 | low or no binding | 1.43 | CCOC(=O)[C@@H]1CN(C(=O)Cc2c[nH]c3cc(F)ccc23)CCO1 [Compound 10168]
19 | 7.14 | low or no binding | 1.6 | CCOC(=O)[C@H]1CN(C(=O)Cc2c[nH]c3cc(F)ccc23)CCO1 [Compound 10169]
20 | 6.11 | low or no binding | 1.52 | O=C(Cc1c[nH]c2cc(F)ccc12)N1CCN(C(=O)C2CCCO2)CC1 (stereo not drawn) [Compound 10170, 2-(6-fluoro-1H-indol-3-yl)-1-(4-(tetrahydrofuran-2-carbonyl)piperazin-1-yl)ethan-1-one]
21 | 7.62 | low or no binding | 1.19 | CCOC(=O)C[C@@H]1CN(C(=O)Cc2c[nH]c3cc(F)ccc23)CCO1 [Compound 10171]

Row | Structure (SMILES) | 19F T2-CPMG Score (HRas^G12V [1]) | Binding to HRas^G12V (in words) (HRas^G12V [2]) | 19F DLB Score (HRas^G12V [3])
22 | COC(=O)[C@H]1CN(C(=O)Cc2c[nH]c3cc(F)ccc23)CCN1C [Compound 10156, Methyl (R)-4-(2-(6-fluoro-1H-indol-3-yl)acetyl)-1-methylpiperazine-2-carboxylate] | 3.43 | low or no binding | 1.42
23 | COC(=O)[C@H]1CN(C)CCN1C(=O)Cc1c[nH]c2cc(F)ccc12 [Compound 10157, Methyl (R)-1-(2-(6-fluoro-1H-indol-3-yl)acetyl)-4-methylpiperazine-2-carboxylate] | 3.58 | low or no binding | 1.04
24 | CN1CCN(C(=O)Cc2c[nH]c3cc(F)ccc23)[C@H](C(=O)O)C1 [Compound 10158] | 2.14 | low or no binding | 0.93
25 | COC(=O)[C@@H]1CN(C(=O)Cc2c[nH]c3cc(F)ccc23)CCN1C [Compound 10163] | 7.3 | low or no binding | 1.61
26 | CN1CCN(C(=O)Cc2c[nH]c3cc(F)ccc23)[C@@H](C(=O)O)C1 [Compound 10165, (R)-1-(2-(6-fluoro-1H-indol-3-yl)acetyl)-4-methylpiperazine-2-carboxylic acid] | 5.28 | low or no binding | 1.58
27 | CN1CCN(C(=O)Cc2c[nH]c3cc(F)ccc23)C[C@@H]1C(=O)O [Compound 10166, (R)-4-(2-(6-fluoro-1H-indol-3-yl)acetyl)-1-methylpiperazine-2-carboxylic Acid] | 7.19 | low or no binding | 1.55
